Measurements reported in ChEMBL document CHEMBL1127760, “Blood-brain penetration of 5-hydroxytryptamine derivatives” (Bioorg Med Chem Lett, 1994).
The source made the active and inactive calls. No cut-off for these calls is given here.

Assays:
Mus musculus [1] = experiment: Locomotor activity of the mice was determined at a dose of 50 ng/Kg after 30-45 min of intracerebroventricular (icv) injection; Significantly reduced; type: functional, organism-based
Mus musculus [2] = experiment: Locomotor activity of the mice was determined at a dose of 50 ng/Kg after 45-60 min of intracerebroventricular (icv) injection; Significantly reduced; type: functional, organism-based

Compound	Activity (Mus musculus [1])	Activity (Mus musculus [2])
CCCCCCCCCCCCCCCCOP(=O)(OCCOC1CC(O)C(O)C(CO)O1)Oc1ccc2[nH]cc(CCNC(C)=O)c2c1 (stereo unspecified)	Significantly reduced	Significantly reduced
CC(=O)NCCc1c[nH]c2ccc(O)cc12	Active	Active
COc1ccc2[nH]cc(CCNC(C)=O)c2c1	Active	Active
